Assay results reported in PMC11969171 (Biomedicine & pharmacotherapy = Biomedecine & …, 2022).
Substitutions are numbered along the chain they refer to.

Columns and labels:
[1] = tested on: corticostriatal glutamate release; conditions: rats, local application, ref [64]; cited from earlier work
A1R^G279S [2] = biological target: T1, A1R^G279S (Homo sapiens, UniProt P30542, G279S); conditions: CPA 200 nM
T1 sequence (P30542 1-326 G279S): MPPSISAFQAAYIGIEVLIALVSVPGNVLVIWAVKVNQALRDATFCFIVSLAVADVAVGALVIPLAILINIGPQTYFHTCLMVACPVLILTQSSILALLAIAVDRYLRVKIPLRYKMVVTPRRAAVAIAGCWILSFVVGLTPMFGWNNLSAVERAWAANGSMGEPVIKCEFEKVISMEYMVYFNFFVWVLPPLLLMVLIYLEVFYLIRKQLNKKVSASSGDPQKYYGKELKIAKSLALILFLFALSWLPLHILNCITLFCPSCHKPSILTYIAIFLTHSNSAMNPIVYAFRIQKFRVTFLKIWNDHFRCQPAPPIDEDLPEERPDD

A1R^wt [3] = biological target: T2, A1R^wt (Homo sapiens, UniProt P30542); conditions: CPA 200 nM
T2 sequence (P30542 1-326): T1 sequence (P30542 1-326 G279S) with S279G

A1R^wt [4] = biological target: T2, A1R^wt; type: binding; conditions: saturating concentration of DPCPX (1 µM)
A1R^G279S [5] = biological target: T1, A1R^G279S; type: binding; conditions: saturating concentration of DPCPX (1 µM)

In the case of OCCN(CCO)c1nc(N2CCCCC2)c2nc(N(CCO)CCO)nc(N3CCCCC3)c2n1 [dipyridamole], the “basal and optogenetic-induced corticostriatal glutamate release” value [1] is listed as “significant decrease”.

In the case of OC[C@H]1O[C@@H](n2cnc3c(NC4CCCC4)ncnc32)[C@H](O)[C@@H]1O [CPA, N6-cyclopentyladenosine], the “functional coupling to Gα12/13, Gαs, β-arrestin2 or GRK2” value (A1R^G279S [2]) is reported as “No functional coupling”, the “functional coupling to Gα12/13, Gαs, β-arrestin2 or GRK2” value (A1R^wt [3]) is reported as “No functional coupling” and the “time to peak of NL-generated signal” value (A1R^wt [3]; Gαi-LgBiT or Gαq-LgBiT, decline to basal after 1 h) is reported as 10 min.

In the case of CCCn1c(=O)c2[nH]c(C3CCCC3)nc2n(CCC)c1=O [DPCPX, 8-cyclopentyl-1,3-dipropylxanthine], the “displacement of CA200634 binding” value (A1R^wt [4]) is reported as “displaced” and the “displacement of CA200634 binding” value (A1R^G279S [5]) is reported as “displaced”.
